# Reference: PubChem BioAssay (NCI)
# Several values for one entry are separate records, joined by “and”; a condition that tells them apart may be missing. Identical values can stand only once.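 96-well plates; 48 h exposure; 5 concentrations. Endpoints by linear interpolation between flanking doses. Not reached: highest tested concentration assigned. GI50: concentration for 50% inhibition of growth. Definition used: TGI = concentration required for complete inhibition of growth.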
# Tests used:
# Assay in all cases: DTP human tumour cell line panel, 48 h
# KM20L2 colon = test system: KM20L2 colon
# COLO 205 colon = test system: COLO 205 colon
# MOLT-4 leukemia = test system: MOLT-4 leukemia
# SK-MEL-28 melanoma = test system: SK-MEL-28 melanoma
# HCT-116 colon = test system: HCT-116 colon
# KM12 colon = test system: KM12 colon
# TK-10 renal = test system: TK-10 renal
# SF-295 CNS = test system: SF-295 CNS
# BT-549 breast = test system: BT-549 breast
SMILES,TGI (KM20L2 colon),TGI (COLO 205 colon),TGI (MOLT-4 leukemia),TGI (SK-MEL-28 melanoma),TGI (HCT-116 colon),TGI (KM12 colon),TGI (TK-10 renal),TGI (SF-295 CNS),GI50 (KM20L2 colon) [µM],GI50 (COLO 205 colon) [µM],GI50 (MOLT-4 leukemia) [µM],GI50 (SK-MEL-28 melanoma) [µM],GI50 (HCT-116 colon) [µM],GI50 (KM12 colon) [µM],GI50 (TK-10 renal) [µM],GI50 (SF-295 CNS) [µM],GI50 (BT-549 breast) [µM],TGI (BT-549 breast) [µM]
Cc1ccc(NC(=O)CC/C(CC(=O)C(C)(C)C)=N/NC(=O)C[N+](C)(C)C)cc1C,> 100 µM,> 100 µM,> 100 µM,> 100 µM,> 100 µM,> 100 µM,> 100 µM,> 100 µM,–,–,–,–,–,–,–,–,–,–
CSc1nc2c(nc(N)n2C2OC(COC(C)=O)C(OC(C)=O)C(OC(C)=O)C2OC(C)=O)c(=O)n1C (centres undefined),> 100 µM,> 100 µM,> 100 µM,–,> 100 µM,> 100 µM,> 100 µM,> 100 µM,–,–,–,–,–,–,–,–,–,–
CCOC(=O)C1=C(C)N(Cc2ccccc2)C(=O)C1CC#N (centres undefined),> 100 µM,> 100 µM,> 100 µM,> 100 µM,> 100 µM,> 100 µM,–,> 100 µM,–,–,–,–,–,–,–,–,–,–
COC(=O)NC(=Nc1ccc(Oc2ccccc2)cc1NC=O)NC(=O)OC,0.49 µM,0.618 µM,> 100 µM,–,28 µM,> 100 µM,> 100 µM,> 100 µM,–,–,–,–,–,–,–,–,–,–
C=C(C)C1CC=C(C)CC1 (centres undefined),> 100 µM and 1750 µM,> 100 µM and 1760 µM,> 100 µM and 2180 µM,> 100 µM and 1680 µM,> 100 µM and 1620 µM,> 100 µM and 1830 µM,> 100 µM and 1760 µM,> 100 µM and 1630 µM,> 100,> 100,> 100,> 100,> 100,> 100,> 100,> 100,–,–
COc1ccc2c(c1)[n+]([O-])c(-c1ccc(Br)cc1)c(N)[n+]2[O-],> 100 µM,32.9 µM,> 100 µM,71.5 µM,> 100 µM,> 100 µM,–,> 100 µM,–,–,–,–,–,–,–,–,–,–
O=C(CC1(O)C(=O)Nc2ccccc21)c1ccc(F)cc1 (centres undefined),> 100 µM,> 100 µM,> 100 µM,> 100 µM,> 100 µM,–,> 100 µM,> 100 µM,–,–,–,–,–,–,–,–,–,–
N#Cc1cc([N+](=O)[O-])ccc1NC(=O)C(F)(F)F,> 100 µM,44.6 µM,> 100 µM,> 100 µM,> 61.5 µM,> 100 µM,> 100 µM,> 100 µM,–,–,–,–,–,–,–,–,–,–
C/C=C(/CCC1NCCC2c3ccccc3NC12)[Si](C)(C)C (centres undefined),16.2 µM,3.15 µM,16.4 µM,16.9 µM,11.9 µM,15.6 µM,28.8 µM,29.1 µM,–,–,–,–,–,–,–,–,–,–
COC(=O)NN1C(C)=C(C(=O)OC)C2(C#N)C(C(=O)OC)=C(C)N(NC(=O)OC)C12N (centres undefined),> 100 µM,> 100 µM,> 100 µM,> 100 µM,> 100 µM,–,> 100 µM,–,–,–,–,–,–,–,–,–,–,–
N.N.O=P([O-])([O-])CN(CCN(CP(=O)([O-])[O-])CP(=O)([O-])[O-])CP(=O)([O-])[O-].[Pt+2],> 100 µM,> 100 µM,> 100 µM,> 100 µM,> 100 µM,> 100 µM,> 100 µM,> 100 µM,> 100,> 100,> 100,> 100,> 100,> 100,> 100,> 100,–,–
CC1=C(C(=O)Nc2ccc3[nH]ncc3c2)C(c2ccc(Cl)c(Cl)c2)CC(=O)N1 (centres undefined),–,> 25 µM,> 25 µM,> 25 µM,> 25 µM,> 25 µM,> 25 µM,> 25 µM,–,16.6,> 22.9,> 25,19.4,> 25,> 12.5,> 19.5,4.99,> 25
Nc1nc2c(nnn2C2OC(CO)C(O)C2O)c(=O)[nH]1 (centres undefined),–,1.67 µM,> 100 µM,> 100 µM,> 100 µM,> 46.8 µM,32.6 µM,> 100 µM,–,0.393,0.847,16.9,2.16,0.97,2.05,1.21,2.41,> 26.3
CC1(C)CCCC(C)(C2CCC3(C)C2C(O)CC2C4(C)CCC(O)C(C)(C)C4C(O)CC23C)O1 (centres undefined),–,24.4 µM,16.3 µM,28.2 µM,> 100 µM,24.7 µM,25.4 µM,24.7 µM,–,–,–,–,–,–,–,–,–,28.5
Cc1[nH]c(C(=O)Nc2ccccc2OC2CCNCC2)c(Cl)c1Cl,–,1.63 µM,3.73 µM,1.97 µM,1.59 µM,3.16 µM,1.62 µM,1.68 µM,–,0.856,1.31,1.01,0.837,1.28,0.841,0.917,0.895,1.7
O=S(=O)(c1ccc(Br)cc1)N1CCN(S(=O)(=O)c2ccc(Br)cc2)CC1,–,> 100 µM,26.7 µM,> 100 µM,> 100 µM,> 100 µM,> 100 µM,> 100 µM,–,–,–,–,–,–,–,–,–,> 100
CCCCCCC/C=C/[C@H]1O[C@]2(O)C(=O)C=C3C[C@@H](O[C@@H]4O[C@H](CO)[C@@H](O)C(O)[C@@H]4O)C[C@@H]3[C@H]2C=C1C (some centres undefined),–,11.8 µM,2.51 µM,8.62 µM,3.64 µM,8.65 µM,11 µM,8.79 µM,–,5.56,0.853,3.97,0.95,3.71,5.51,3.87,1.18,5.53
CC(C)(CCN=C(N)Nc1ccccn1)c1ccc(C(F)(F)F)cc1,–,28.1 µM,37.4 µM,30.6 µM,24.3 µM,30.9 µM,29.5 µM,29.3 µM,–,13.3,14.5,15.8,10.6,15.8,15.5,14.9,15.1,31.2
CCOC(=O)c1ccc2c(c1)nc(/C=C/c1ccc(Cl)cc1)n2-c1cc(C(C)(C)C)[nH]n1,–,> 100 µM,> 100 µM,40.3 µM,12.4 µM,> 100 µM,7.2 µM,8.82 µM,–,28.6,4.74,3.51,3.42,12.9,3.11,2.63,4.54,25.6
